From patent US20020077289A1, “Angiostatin and endostatin binding proteins and methods of use” (priority 2000, published 2002)
Where two headings read alike, the source gives them in different places. Bridges are numbered along the chain shown (N, C = ends). Where no end group is shown, it is not given here.

Columns and labels:
[1] = biological target: T1, recombinant human Endostatin protein (Homo sapiens, UniProt P39060); assay: Phage display panning on Endostatin protein; assay type: binding
T1 construct: recombinant human Angiostatin protein, K1-4 protein, or recombinant human Endostatin protein were coated overnight; made in house; host or cells: Pichia pastoris
T1 sequence (P39060 1572-1754 limits assumed): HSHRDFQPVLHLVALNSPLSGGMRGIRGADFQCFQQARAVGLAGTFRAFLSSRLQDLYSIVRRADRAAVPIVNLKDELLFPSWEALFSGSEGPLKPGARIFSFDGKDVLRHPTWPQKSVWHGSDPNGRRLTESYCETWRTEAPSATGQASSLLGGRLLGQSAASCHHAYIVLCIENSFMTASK
Source text: The Ph.D.-C7C, a disulfide constrained 7-mer phage-display library (New England BioLabs, Beverly, Mass.), was screened as recommended by the manufacturer. Following a third round of amplification individual phage were isolated and the peptide sequences deduced by DNA sequencing.
(§1) The Ph.D.-7 phage display library (New England BioLabs Cat #8100), a combinatorial library consisting of random peptide 7-mers, was screened for 7 amino acid binding peptides. The Ph.D.-7 phage display library consists of linear 7-mer peptides fused to the pIII coat protein of M13 via a Gly-Gly-Gly-Ser flexible linker. The library contains 2.8×10^9 independent clones. The Ph.D. library is useful for identifying targets requiring binding elements concentrated in a short stretch of amino acids.
The Ph.D.-C7C library (New England BioLabs Cat # 8120) is a combinatorial library consisting of random peptide 7-mers flanked by cysteine residues that under non-denaturing conditions are disulfide bonded resulting in the display of cyclized peptides. In non-reducing conditions, the cysteines form a disulfide bond resulting in each peptide being constrained in a disulfide loop. The library contains 3.7×10^9 independent clones that, like the Ph.D.-7 library, result in peptides fused to the pIII coat protein of M13 via a Gly-Gly-Gly-Ser flexible linker. […]

B16-BL6 melanoma cells = assay: B16-BL6 experimental metastasis assay; assay type: in vivo, C57BL/6J mice
Procedure: C57BL/6J mice were injected via the tail vein with 5×10^4 B16-BL6 melanoma cells on day 0. On day 3, groups of five mice received daily subcutaneous doses of either buffer control, 1.5 nmol (1.5 mg/kg/day) of rhEndostatin in combination with 0, 15, 75 or 375 nmol of control or E37 peptide, or control or E37 peptide alone for eleven days. All mice were sacrificed on day 14, and the number of pulmonary surface metastases in each animal counted. Error bars indicate standard deviation of the mean.
C57BL/6J mice (n=8) were injected intravenously (i.v.) with 5×10^4 B16-BL6 cells/mouse. Three days later treatment commenced. 100 μl of citrate-phosphate buffer (66 mM Sodium Phosphate, 17 mM Citric acid, 59 mM NaCl pH 6.2) containing 1.5 nmol of rhEndostatin and 100 μl of PBS containing either 0, 15, 75 or 375 nmol of control or E37 peptide were mixed and injected subcutaneously (s.c.) daily for 11 days. All mice were then sacrificed, their lungs removed and the number of surface metastases counted. Results were analyzed for statistical significance using the 2-tailed Student's t-test.
The following experiment was conducted to determine the interaction of E37 peptide and Endostatin protein. Briefly, the B16BL6 experimental metastasis assay, as known to those of skill in the art and further described in International Patent Application number PCT/US99/11418, was performed as follows. 5×10^4 B16-BL6 cells in 200 μl of PBS were injected into C57BL/6J mice via the tail vein. Three days post injection treatment was started. The injection received by eight groups of mice were: 1) citrate phosphate/PBS buffer, 2) ^30 μg Endostatin protein (in 100 μl PBS), 3) 30 μg Endostatin protein (in 200 μl PBS), 4) 30 μg Endostatin protein plus 50 times molar excess of control peptide (in 200 μl PBS), 5) 30 μg Endostatin protein plus 250 times molar excess of control peptide (in 200 μl PBS), 6) 30 μg Endostatin protein plus 10 times molar excess of E37 peptide (in 200 μl PBS), 7) 30 μg Endostatin protein plus 50 times molar excess of E37 peptide (in 200 μl PBS), and 8) 30 μg Endostatin protein plus 250 times molar excess of E37 peptide (in 200 μl PBS). Doses were administered daily for eleven days posterior to the thoracic cavity subcutaneously. All mice were sacrificed, the lungs removed and the number of surface metastases in each animal were counted under a stereo microscope.

HUVEC microfilaments = assay: Fluorescent staining of formalin fixed endothelial cells with Alexa 488-labeled rhEndostatin; assay type: cell-based, human; conditions: 50-fold molar excess (100 μM) of peptide; 40 μg/ml (2 μM) Alexa-rhEndostatin
Procedure: (A), HUVECs, (B), HAECs and (C), HMVECs were incubated in the presence of 40 micrograms per milliliter (μg/ml) Alexa 488-labeled rhEndostatin and photographed at 100× magnification under Alexa 488 (green) excitation wavelength. (D) and (E), HUVECs were incubated simultaneously in anti-tropomyosin TM311 ascites fluid and 40 micrograms per milliliter (μg/ml) Alexa 488-labeled rhEndostatin followed by incubation in Alexa 594 conjugated goat anti-mouse IgG (H+L). The same field was photographed under Alexa 488 (green) and Alexa 594 (red) excitation wavelengths at 100× magnification.
HUVECs were incubated in the presence of 40 micrograms per milliliter (μg/ml) Alexa 488-labeled rhEndostatin alone (A), or in the presence of a 50-fold molar excess of control peptide (B), or E37 peptide (C). Cells were photographed using the same exposure times at 100x magnification under Alexa 488 (green) excitation wavelength.
To detect the binding of Alexa-labeled rhEndostatin 1×10^4 HUVEC, HMVEC and HAECs were plated on 1.5% gelatin coated Nalge Nunc Lab Tek II chamber slides (Naperville, Ill.) and fixed in 10% neutral buffered formalin followed by a methanol wash. The chamber slides were incubated in PBS/1% calf serum containing 40 μg/ml (2 μM) of Alexa 488-labeled rhEndostatin (Narum et al., manuscript in preparation) for 1 hr at room temperature. The slides were washed in PBS, coverslips mounted using fluorescent mounting media (Kirkegaard and Perry Laboratories, Gaithersburg, Md.) and cells photographed under Alexa 488 excitation wavelength. Co-localization studies were performed as above except cells were incubated in PBS/1% calf serum containing 1:200 mouse anti-tropomyosin TM311 (Sigma, St. Louis, Miss.) and 40 μg/ml of Alexa 488-labeled rhEndostatin followed by incubation with goat anti-mouse IgG (H+L) conjugated to Alexa 594 (Molecular Probes, Eugene, Oregon). The same fields were photographed under Alexa 488 and Alexa 594 wavelengths. […]

[2] = tested on: recombinant human Angiostatin protein; assay: Phage display panning on Angiostatin protein; assay type: binding
Chain of recombinant human Angiostatin protein (P00747 103-352 limits assumed): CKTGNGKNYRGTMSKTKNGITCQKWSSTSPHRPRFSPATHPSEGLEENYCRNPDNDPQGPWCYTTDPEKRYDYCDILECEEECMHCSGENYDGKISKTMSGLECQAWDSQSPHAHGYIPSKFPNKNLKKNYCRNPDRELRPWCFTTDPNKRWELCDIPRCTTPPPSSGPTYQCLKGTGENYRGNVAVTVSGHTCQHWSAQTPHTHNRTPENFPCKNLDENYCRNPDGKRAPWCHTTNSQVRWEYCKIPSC
Source text: as §1
The Ph.D.-C7C library (New England BioLabs Cat # 8120) is a combinatorial library consisting of random peptide 7-mers flanked by cysteine residues that under non-denaturing conditions are disulfide bonded resulting in the display of cyclized peptides. In non-reducing conditions, the cysteines form a disulfide bond resulting in each peptide being constrained in a disulfide loop. The library contains 3.7×10^9 independent clones that, like the Ph.D.-7 library, result in peptides fused to the pIII coat protein of M13 via a Gly-Gly-Gly-Ser flexible linker. Constrained libraries are useful in the identification of structural epitopes. The Ph.D.-C7C library was screened for the binding of 7 amino acid cyclized binding peptides.
The phage display libraries were screened following the manufacturers' recommendations. […]

[3] = biological target: recombinant human tropomyosin isoform 3 (human); assay: SPR (BIAcore 3000), rhTM3 immobilized, steady state model

CTHWWHKRCGGGS (disulfide 1-9 (inferred)) [E37 peptide]
binding to Endostatin protein (phage display selection) [1]: binds
binding to Endostatin protein (phage display selection) ([1]; listed as E37): found to bind rhEndostatin
decrease in the anti-tumor activity of rhEndostatin (B16-BL6 melanoma cells; co-injection of 1.5 nmol rhEndostatin with 15 nmol E37 peptide): 11%
decrease in the anti-tumor activity of rhEndostatin (B16-BL6 melanoma cells; co-injection of 1.5 nmol rhEndostatin with 75 nmol E37 peptide): 30.5%
decrease in the anti-tumor activity of rhEndostatin (B16-BL6 melanoma cells; co-injection of 1.5 nmol rhEndostatin with 375 nmol E37 peptide): 84.5%
number of metastatic lesions on the lungs versus control group (B16-BL6 melanoma cells; up to 375 nmol/day E37 peptide in the absence of rhEndostatin): not statistically different from that of the control group
inhibition of binding of Alexa-labeled rhEndostatin to HUVEC microfilaments (HUVEC microfilaments): inhibited the binding of rhEndostatin to HUVEC microfilaments

H A I Y P R H G G G S (HAIYPRHGGGS) [Peptide A10]
binding to Angiostatin protein (phage display selection) [2]: binds

B1: recombinant human Endostatin protein (protein)
chain: T1 sequence (P39060 1572-1754 limits assumed)
modifications: Alexa Fluor 488 label in some experiments
Kd [3]: 100 µM
